# Test results reported in patent US20260167632A1, “NICOTINAMIDE DERIVATIVES FOR USE IN TREATING DISORDERS ASSOCIATED WITH KCNK13 ACTIVITY” (Cerevance, Inc., priority 2022, published 2026).
# Target: T1, human KCNK13 (Homo sapiens, UniProt Q9HB14)
# T1 construct: expressed in transfected cells
# T1 sequence (Q9HB14 1-408): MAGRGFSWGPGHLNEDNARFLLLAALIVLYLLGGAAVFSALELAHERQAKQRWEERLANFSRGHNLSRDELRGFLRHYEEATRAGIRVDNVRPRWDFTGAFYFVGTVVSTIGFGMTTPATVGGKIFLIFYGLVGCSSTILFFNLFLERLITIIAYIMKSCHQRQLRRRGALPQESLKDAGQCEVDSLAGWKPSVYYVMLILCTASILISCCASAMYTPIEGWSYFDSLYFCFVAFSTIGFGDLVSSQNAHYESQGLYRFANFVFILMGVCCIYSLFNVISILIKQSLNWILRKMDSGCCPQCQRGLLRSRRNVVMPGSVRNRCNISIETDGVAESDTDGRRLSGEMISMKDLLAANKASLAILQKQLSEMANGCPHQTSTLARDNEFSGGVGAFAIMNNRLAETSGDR
# Assay: KCNK13 antagonist activity, thallium flux FLIPR assay in HEK 293 cells stably expressing human KCNK13
# Format: cell-based
# Conditions: HEK 293 cells stably expressing human KCNK13, Tl+ sensitive dye, compound 15 min before thallium sulfate, ten point curves; read-out: hKCNK13 IC50
# Procedure: 4. Biological Efficacy of Compounds of the Invention
# KCNK13 antagonist activity was determined by measuring changes in intracellular Thallium (Tl^+) concentrations using a Tl^+ sensitive fluorescent dye. The changes in fluorescent signal were monitored by Fluorescent Imaging Plate Reader (FLIPR™) technology available from Molecular Devices, LLC, US. KCNK13 mediated increases in intracellular Tl^+ concentration were readily detected by addition of a thallium sulfate Stimulus. 24 hours prior to the assay, human embryonic kidney 293 cells (HEK 293 cells) stably expressing human KCNK13 were seeded in cell culture medium in PDL coated black, clear-bottom 384-well plates (commercially available from Corning Inc., 356663) and grown overnight at 37° C., […]. On the day of the assay, cell culture media was removed and cells were loaded with potassium dye (commercially sold by Molecular Devices, LLC, US, R8222) for 1 hour at room temperature in the dark. Test compounds (at 10 point half log concentration response curves from 100 µM) were added to cells for 15 minutes prior to the addition of thallium sulfate to all wells. The IC50 values were determined from ten point concentration response curves. Curves were generated using the average of two wells for each data point.
row,IC50,Structure (SMILES)
1,≤ 500 nM,"CN(C(=O)c1cc(Cl)cnc1OC(F)F)C1COc2ccccc21 (stereo not drawn) [Example 91, 5-chloro-2-(difluoromethoxy)-N-(2,3-dihydrobenzofuran-3-yl)-N-methylnicotinamide]"
2,≤ 500 nM,"COc1ncc(Cl)cc1C(=O)N(C)C1CCOc2ccccc21 (single isomer, unassigned) [Example 18, 5-chloro-N-(chroman-4-yl)-2-methoxy-N-methylnicotinamide]"
3,≤ 500 nM,"CN(Cc1cccc(C#N)c1)C(=O)c1cc(Cl)cnc1OC(F)F [Example 90, 5-chloro-N-(3-cyanobenzyl)-2-(difluoromethoxy)-N-methylnicotinamide]"
4,≤ 500 nM,"O=S(=O)(c1cc(Cl)cnc1OC(F)F)N1CCOc2ccc(F)cc2C1 [Example 115, 4-((5-chloro-2-(difluoromethoxy)pyridin-3-yl)sulfonyl)-7-fluoro-2,3,4,5-tetrahydrobenzo[f][1,4]oxazepine]"
5,≤ 50 nM,"CN(Cc1cc(F)cc(F)c1)C(=O)c1cc(Cl)cnc1OC(F)F [Example 78, 5-chloro-N-(3,5-difluorobenzyl)-2-(difluoromethoxy)-N-methylnicotinamide]"
6,≤ 200 nM,"CC(c1cccc(F)c1)N(C)C(=O)c1cc(Cl)cnc1OC(F)F (single isomer, unassigned) [Example 87, 5-chloro-2-(difluoromethoxy)-N-(1-(3-fluorophenyl)ethyl)-N-methylnicotinamide]"
7,≤ 1000 nM,"CCN(Cc1cccc(F)c1)C(=O)c1cc(Cl)cnc1OC [Example 49, 5-chloro-N-ethyl-N-(3-fluorobenzyl)-2-methoxynicotinamide]"
8,≤ 500 nM,"COc1ncc(Cl)cc1C(=O)N(C)C1COc2ccccc21 (single isomer, unassigned) [Example 26, 5-chloro-N-(2,3-dihydrobenzofuran-3-yl)-2-methoxy-N-methylnicotinamide]"
9,≤ 1000 nM,"CCOc1ncc(Cl)cc1C(=O)N(C)C1CCc2ccccc21 (single isomer, unassigned) [Example 12, 5-chloro-N-(2,3-dihydro-1H-inden-1-yl)-2-ethoxy-N-methylnicotinamide]"
10,≤ 100 nM,"CN(Cc1ccc(F)cc1F)C(=O)c1cc(F)cnc1OC(F)F [Example 94, N-(2,4-difluorobenzyl)-2-(difluoromethoxy)-5-fluoro-N-methylnicotinamide]"
11,≤ 500 nM,"COc1ncc(F)cc1C(=O)N(C)C1CCOc2ccccc21 (single isomer, unassigned) [Example 15, N-(chroman-4-yl)-5-fluoro-2-methoxy-N-methylnicotinamide]"
12,≤ 100 nM,"CN(Cc1cccc(F)c1)C(=O)c1cc(F)cnc1OC(F)F [Example 95, 2-(difluoromethoxy)-5-fluoro-N-(3-fluorobenzyl)-N-methylnicotinamide]"
13,≤ 1000 nM,"COc1ncccc1C(=O)N(C)Cc1cccc(F)c1 [Example 32, N-(3-fluorobenzyl)-2-methoxy-N-methylnicotinamide]"
14,≤ 500 nM,"COc1ncc(F)cc1C(=O)N(C)C1(c2cccc(F)c2)CC1 [Example 34, 5-fluoro-N-(1-(3-fluorophenyl)cyclopropyl)-2-methoxy-N-methylnicotinamide]"
15,≤ 5000 nM,"COc1ncc(Cl)cc1C(=O)N(C)C(C)c1ccc(F)cc1C#N (single isomer, unassigned) [Example 66, 5-chloro-N-(1-(2-cyano-4-fluorophenyl)ethyl)-2-methoxy-N-methylnicotinamide]"
16,≤ 200 nM,"COc1ncc(Cl)cc1C(=O)N(C)Cc1c(Cl)cccc1Cl [Example 118, 5-chloro-N-(2,6-dichlorobenzyl)-2-methoxy-N-methylnicotinamide]"
17,≤ 100 nM,"CN(Cc1cccc(F)c1F)C(=O)c1cc(F)cnc1OC(F)F [Example 93, N-(2,3-difluorobenzyl)-2-(difluoromethoxy)-5-fluoro-N-methylnicotinamide]"
18,≤ 200 nM,"COc1ncc(F)cc1C(=O)N(C)C(C)c1cccc(F)c1 (single isomer, unassigned) [Example 8, 5-fluoro-N-(1-(3-fluorophenyl)ethyl)-2-methoxy-N-methylnicotinamide]"
